Laboratory results as given in US7943603B2, “Medical uses of a selective estrogen receptor modulator in combination with sex steroid precursors” (Endorecherche, Inc., priority 1998, dated 2011).
Entries after “also recorded” stand apart in the source; their conditions may differ.

Assays:
[1] = aged Sprague-Dawley rats; reduced from 600 g, food intake unaffected; cited from earlier work
[2] = test system: rat; assay: Urine and serum biochemical parameters of bone metabolism; type: in vivo; conditions: DHEA 10 mg percutaneously, EM-800 75 μg orally, once daily, alone or in combination, 9 months
Source text: (§1) The animals were randomly divided into groups each containing 20 rats with the exception of 40 animals in the control group. […] Treatment was initiated 3 days before the oral administration of DMBA. EM-800 was synthesized in the Medicinal Chemistry Division of our laboratory while DHEA was purchased from Steraloids Inc., Wilton, N.H.
(§2) Twenty-four-hour urinary samples were collected at the end of the experiment from the first 9 rats of each group following transfer in metabolic cages (Allentown Caging Equipment Co., Allentown, N.J.). Two urinary samples were collected and analyzed on different days for each animal in order to minimize the influence of daily variation. Therefore, each value shown represents the mean of the two measurements performed on two different days. 0.5 ml of toluene was added into the urine collecting tubes to prevent urine evaporation and bacterial growth and the urinary volume was recorded. Trunk blood was collected at sacrifice and was allowed to clot at 4° C. overnight before centrifugation at 3000 rpm for 30 min.
(§3) Fresh samples were used for the assay of urinary creatinine, calcium, and phosphorus as well as serum total alkaline phosphatase (tALP) activity, cholesterol and triglycerides. These biochemical parameters were measured automatically with a Monarch 2000 Chemistry System (Instrumentation Laboratory Co. Lexington, Mass.) under Good Laboratory Practice conditions. Urinary hydroxyproline was measured as described (Podenphant et al., Clinica Chimica Acta 142: 145-148, 1984).

[3] = test system: DMBA-induced mammary carcinoma; assay: Development of DMBA-induced mammary carcinoma in the rat; type: in vivo; conditions: 279 days after DMBA
Protocol: (§4) Female Sprague-Dawley rats [Crl:CD(SD)Br] were obtained at 44-46 days of age from Charles River Canada Inc. (St. Constant, Quebec) and housed 2 per cage in a light (12 h light/day; lights on at 07:15 h)-and temperature (22±2° C.)-controlled environment. Animals received Purina rodent chow and tap water ad libitum. The animal studies were conducted in a Canadian Council on Animal Care (CCAC)-approved facility in agreement with the CCAC Guide for Care and Use of Experimental Animals.
Mammary carcinomas were induced by a single intragastric administration of 20 mg of DMBA (Sigma Chemical Co., St. Louis, Mo.) in 1 ml of corn oil at 50-52 days of age. Two months later, tumor measurement was performed biweekly. The two largest perpendicular diameters of each tumor were recorded with calipers to estimate tumor size as described (Asselin et al., Endocrinology 101: 666-671, 1977). Tumor site, size and number were recorded.
as §1
Many of the control animals and some of EM-800- or DHEA-treated animals were sacrificed by cervical dislocation under isoflurane-induced anesthesia 6 months after DMBA administration because of the too large size of tumors. The values of tumor size and number of these rats at sacrifice, together with those measured at later time intervals from the surviving animals, were used for the later analysis of the incidence of tumors, average tumor number per tumor-bearing rat and average tumor size per tumor-bearing animal. […] Rats were sacrificed 279 days after DMBA administration.
Statistical significance was measured according to the multiple range test of Duncan-Kramer (Biometrics 12: 307-310, 1956). Analysis of the incidence of development of mammary tumors was performed using the Fisher's exact test (Conover, Practical nonparametric statistics, 2nd Edition 153-170, 1980). The data are presented as means±S.E.M.

[4] = test system: human ZR-75-1 breast tumor xenografts; assay: Growth of human ZR-75-1 breast tumor xenografts in OVX nude mice supplemented with estrone; conditions: alone or with EM-800 15 μg, OVX+E1 0.5 μg nude mice, 9.5 months
[5] = test system: ovariectomized (OVX) nude mice supplemented with estrone; assay: Uterine, vaginal and body weight in OVX nude mice bearing ZR-75-1 xenografts; conditions: OVX+E1 nude mice
Protocol: A posteriori pairwise comparisons were performed using Fisher's test for least significant difference. Main effects and the interaction of treatments on body weight and organ weight were analyzed using a standard two-way ANOVA with interactions. All ANOVAs were performed using SAS program (SAS Institute, Cary, N.C., USA). Significance of differences were declared using a 2-tailed test with an overall level of 5%.

[6] = test system: ovariectomized rats; assay: Bone histomorphometry of tibia after 12-month treatment of ovariectomized rats; type: in vivo, rat; conditions: 12 months, histology
Protocol: Intact animals are added as additional controls. Data are presented as mean±SEM **p<0.01 versus OVX Control.
Modified trichrome Masson-Goldner, magn. ×80. T: Trabeculae, GP: Growth Plate.

[7] = test system: female rat; assay: Bone mineral density (DEXA) after 9-month treatment; type: in vivo; conditions: DHEA 10 mg percutaneously, EM-800 75 μg orally, once daily, alone or in combination, 9 months
Protocol: as §4, §1
Rats were anesthetized with an i.p. injection of ketamine hydrochloride and diazepam at doses of 50 and 4 mg/kg B.W., respectively. The whole skeleton and the right femur were scanned using dual energy X-ray absorptiometry (DEXA; QDR 2000-7.10C, Hologic, Waltham, Mass.) equipped with a Regional High Resolution software. The scan field sizes were 28.110×17.805 cm and 5.0×1.902 cm, the resolutions were 0.1511×0.0761 cm and 0.0254×0.0127 cm, while the scan speeds were 0.3608 and 0.0956 mm/sec for total skeleton and femur, respectively. Both bone mineral content (BMC) and bone mineral density (BMD) of total skeleton, lumbar spine, and femur were measured on the scan images of total skeleton and femur.

[8] = test system: rat; assay: Serum triglyceride and cholesterol levels after 9-month treatment; type: in vivo; conditions: DHEA 10 mg percutaneously, EM-800 75 μg orally, once daily, alone or in combination, 9 months
Source text: as §1, §2, §3

[9] = Example 5 table: serum, urinary and GnRH mRNA parameters in OVX groups; type: in vivo; conditions: doses not given

SMILES: C[C@]12CC[C@H](O)CC1=CC[C@@H]1[C@@H]2CC[C@]2(C)C(=O)CC[C@@H]12 [DHEA, dehydroepiandrosterone]
- body weight [1]: 550 g
- decrease of daily urinary calcium excretion versus control [2]: no effect
- decrease of daily urinary phosphorus excretion versus control [2]: no effect
- decrease of urinary hydroxyproline/creatinine ratio versus control [2]: no effect; also recorded: did not affect; also recorded: did not show any effect
- incidence of DMBA-induced mammary carcinoma (animals with palpable tumors) ([3]; DHEA 10 mg percutaneously, EM-800 75 μg orally, once daily, control 95%): 57%
- average tumor number per tumor-bearing animal ([3]; end of experiment, DHEA 10 mg, EM-800 75 μg daily, control 4.7±0.5): 3.4±0.7 tumors/animal
- average tumor area per tumor-bearing animal ([3]; end of experiment, DHEA 10 mg, EM-800 75 μg daily, control 12.8±1.3): 10.2±2.1 cm^2
- Complete response, (%) ([4]; DHEA 0.3 mg percutaneously): 28.6%
- Complete response, number ([4]; DHEA 0.3 mg percutaneously): 4
- Partial response, (%) ([4]; DHEA 0.3 mg percutaneously): 0 (0) %
- Partial response, number ([4]; DHEA 0.3 mg percutaneously): 0 (0)
- Progression, (%) ([4]; DHEA 0.3 mg percutaneously): 50.0%
- Progression, number ([4]; DHEA 0.3 mg percutaneously): 7
- Stable response, (%) ([4]; DHEA 0.3 mg percutaneously): 21.4%
- Stable response, number ([4]; DHEA 0.3 mg percutaneously): 3
- Complete response, (%) ([4]; DHEA 1.0 mg percutaneously): 26.7%
- Complete response, number ([4]; DHEA 1.0 mg percutaneously): 4
- Partial response, (%) ([4]; DHEA 1.0 mg percutaneously): 0 (0) %
- Partial response, number ([4]; DHEA 1.0 mg percutaneously): 0 (0)
- Progression, (%) ([4]; DHEA 1.0 mg percutaneously): 53.3%
- Progression, number ([4]; DHEA 1.0 mg percutaneously): 8
- Stable response, (%) ([4]; DHEA 1.0 mg percutaneously): 20.0%
- Stable response, number ([4]; DHEA 1.0 mg percutaneously): 3
- Complete response, (%) ([4]; DHEA 3.0 mg percutaneously): 20.0%
- Complete response, number ([4]; DHEA 3.0 mg percutaneously): 3
- Partial response, (%) ([4]; DHEA 3.0 mg percutaneously): 0 (0) %
- Partial response, number ([4]; DHEA 3.0 mg percutaneously): 0 (0)
- Progression, (%) ([4]; DHEA 3.0 mg percutaneously): 66.7%
- Progression, number ([4]; DHEA 3.0 mg percutaneously): 10
- Stable response, (%) ([4]; DHEA 3.0 mg percutaneously): 13.3%
- Stable response, number ([4]; DHEA 3.0 mg percutaneously): 2
- effect of addition of DHEA on estrone-stimulated vaginal weight ([5]; DHEA 0.3, 1.0 or 3.0 mg): no significant effect
- effect on body weight adjusted for tumor weight ([5]; 9.5 months): No significant effect
- effect on trabecular bone volume of proximal tibia metaphysis (FIG. 8) [6]: significant increase in trabecular bone volume
- BMD FEMUR [7]: 0.3408 ± 0.0038 g/cm2
- BMD LUMBAR SPINE [7]: 0.2163 ± 0.0049 g/cm2
- BMD TOTAL SKELETON [7]: 0.1465 ± 0.0010 g/cm2
- increase in BMD of femur versus control [7]: 8.2%
- increase in BMD of lumbar spine versus control [7]: 10.6%
- increase in BMD of total skeleton versus control [7]: 6.9%
- decrease of serum cholesterol levels [8]: unaffected
- decrease of serum triglyceride levels [8]: 60%
- GnRH mRNA levels silver grains per cell [9]: 34.5 ± 0.7 silver grains per cell
- Triglycerides [9]: 0.8 ± 0.1 mmol/L
- Urinary OH-proline/creatinin [9]: 7.3 ± 1.0 μmol/mmol
- LH ([9]; LD: Limit of Detection: 0.01 ng/ml): 0.02 ± 0.01 ng/mL
